The source of these data is patent US10953027B2, “Active agents and methods of their use for the treatment of metabolic disorders and nonalcoholic fatty liver disease” (Flagship Pioneering Innovations V, Inc., priority 2018, dated 2021).

The subject of series [1] is Primary human subcutaneous adipocytes. Kind of series: Glucose uptake in human subcutaneous adipocytes, insulin sensitive model. Format: cell-based. The procedure:
Primary human subcutaneous adipocytes (Zen Bio, Research Triangle Park, N.C.) were differentiated for two weeks prior to treatment. Cells were treated with indicated compounds diluted in (dimethyl-sulfoxide) DMSO in serum free medium for 24 hours in triplicate. After 24 hours, media was exchanged for assay buffer and the compounds were added again but in the presence of approximately 1 nM insulin. Glucose uptake was initiated with the addition of a cocktail containing 2-deoxyglucose and ^3H-2-deoxyglucose and allowed to incubate for 2 hours. Cells were washed, lysed and glucose uptake was measured as counts per well. As an assay control, 100 nM of insulin was used during the 2 hours of glucose uptake. […] Statistical changes in glucose uptake were determined by way ANOVA and compared to DMSO.

For the next series, the system named is Mouse 3T3-L1 cells. Kind of series: Mouse adipocyte lipolysis assay. Particulars: Mus musculus, 3T3-L1, 24 hours, read-out: Lipolysis Free Fatty Acids % DMSO. Format: cell-based. The procedure:
Once the cells became confluent, they were seeded into a tissue culture treated 96 well plate. […] After 14 days of differentiation, cells were treated with compounds of interest. After 24 hours post-treatment, the cell viability was assessed using CellTiter-Glo Luminescent Cell Viability Assay from Promega, and lipolysis was determined using Lipolysis Assay Kit from ZenBio.

Series [2] relates to Human Peripheral Blood Monocytes (PBMCs). Nature of the series: Cytokine release from human PBMCs. Format: cell-based. Conditions: 100 μM, LPS, 24 hours. The procedure: Human donor blood (8 mL) was collected in sodium citrate CPT tubes and centrifuged at 1,600×g for 20 minutes at room temperature. […] PBMCs samples were centrifuged at 400×g for 10 minutes at 10° C. […] PBMCs were filtered through a 70 micron mesh to remove any cellular debris. […] PBMCs in a 96-well plate were rested for 30 minutes in a 37° C., 5% CO2 incubator, then subsequently treated with 10 μl of indicated compound. After 2 hours 10 μL of LPS (O111:B4) 1 mg/mL was added to test wells. After 24 hours of incubation at 37° C., 5% CO2, 100 μL of cell supernatant was collected and transferred to a 96-well plate (non-tissue treated, flat bottom). The plate was centrifuged at 350×g for 5 minutes at room temperature, and then the clear supernatant transferred to a new 96-well plate (non-tissue treated, flat bottom). The remaining cells were tested for viability using CellTiter-Glo® Luminescent Cell Viability Assay (Promega). The supernatant was analyzed for TNFα, IL-6 and IL-1β (kit LXSAHM-03; R&D Systems), using Luminex Immunoassay Technology (MAGPIX System). Cytokine levels of LPS treated DMSO control samples were set to 100%, and compound treated samples were expressed relative to this (Table 13).

A further series concerns naïve CD4+ T cells. Kind of series: Human regulatory T cell differentiation assay. Format: cell-based. Conditions: 6 days. In short, it runs like this:
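Naïve CD4+ T cells from healthy-donor PBMCs cultured 6 days in OpTmizer medium with 5 ng/ml TGF-β, 100 U/ml IL-2 and CD3/CD28/CD2 activator, with or without compound. Tregs (live CD4+CD3+CD25+FOXP3+, lineage-negative) measured by flow cytometry and expressed as % of total CD4+ T cells.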

Series [3] relates to Primary human subcutaneous adipocytes. Kind of series: Glucose uptake in human subcutaneous adipocytes, insulin resistant model. Format: cell-based. The method, then:
As described above, primary human subcutaneous adipocytes were differentiated for two weeks prior to treatment. To induce an insulin resistant state, cells were treated in serum free Dulbecco's Modified Eagle Medium (high glucose) and […] for 24 hours. Cells were simultaneously treated with compounds diluted in DMSO for 24 hours. As described above, after 24 hours, media was exchanged for assay buffer and the compounds were added again but in the presence of approximately 1 nM insulin. Cells were washed and lysed after 2 hours and glucose uptake was measured. […] Statistical changes in glucose uptake were determined by way ANOVA and compared to DMSO.

The subject of another series is Mouse myocyte. Nature of the series: Mouse myocyte lipolysis assay. Format: cell-based. Particulars: Mus musculus, read-out: Free glycerol % DMSO.
The next series deals with Caco-2 colonocytes. Nature of the series: Human Caco-2 barrier integrity assay (TEER). Format: cell-based. Particulars: 48 hours. The method, then: Caco-2 colonocytes were maintained at 37° C. and 5% CO2 in Dulbecco's Modified Eagle Medium (DMEM) and supplemented with 10% FBS, 1% NEAA, 1% penicillin-streptomycin. At 70-80% confluency, cells were trypsinized and seeded in 0.4 cm^2 transwell collagen I coated membranes with supplemented DMEM in both apical and basolateral compartments. Cells were seeded at a density of 200,000 cells per well and maintained for 10 days to form a polarized barrier with a TransEpithelial Electrial Resistance (TEER) reading above 1000Ω. On the first day of the assay, initial TEER readings were taken and cytokines were added to the basolateral media (50 ng/mL TNFα, 25 ng/mL IFNγ and 10 ng/mL IL-1β) to reduce barrier integrity while compounds diluted in (dimethylsulfoxide) DMSO were added to the apical media in triplicate. After 48 hours, TEER readings were taken again and viability was measured by CellTiter 96® AQueous One Solution Cell Proliferation Assay (Promega). The percent change in TEER over the 48 hours was determined and normalized to the 0.1% DMSO control (Table 6).

The subject of a further series is AhR. Kind of series: AhR activation in Caco-2 cells through CYP1A1 mRNA expression. The procedure: Caco-2 cells from American Type Culture Collection (ATCC) were plated in a sterile tissue culture treated 96-well plate (ThermoFisher) at […] per well, and grown overnight at 37° C., 5% CO2 in DMEM complete (Gibco) in order to achieve confluence. After the incubation medium was aspirated from the Caco-2 monolayers, tissues were then washed with 200 μL of warmed PBS solution, and subsequently 190 μL of pre-warmed growth medium was added to each well. Compounds of interest were diluted at a 20× concentration in growth medium containing 2% DMSO, and 10 μL of compound solutions were added to respective wells in triplicate. Compounds where incubated overnight at 37° C., 5% CO2. 2-(1′H-indole-3′-carbonyl)-thiazole-4-carboxylic acid methyl ester (ITE) was used as the positive control for AhR activation at 1 and 100 μM concentrations. At the end of the incubation, medium was aspirated off of the Caco-2 cells, and washed with 100 μL of cold PBS solution. RNA was extracted via the TaqMan™ Gene Expression Cells-to-CT™ Kit (ThermoFisher) according to the manufacturers protocol. The QuantStudio 6 Flex (Applied Biosciences) was used to analyze mRNA levels of CYP1A1 using GAPDH as the endogenous control. TaqMan™ probe sets for both genes were acquired from ThermoFisher. Samples were run in triplicate and data was analyzed using the QuantStudio software and reported as linear (Table 1) and log 2(ΔΔCT) values. Statistical analysis was performed using a two-tailed t-test comparing CYP1A1 levels in the presence of each individual compound to the vehicle negative control.

[4] abbreviates: Homo sapiens, CD4+ T, 144 h, 1 uM, read-out: Treg induction % DMSO.

`Oc1ccc(C=Cc2cc(O)cc(O)c2)cc1` [Resveratrol, resveratrol]: the “Insulin Sensitive % DMSO (glucose uptake)” value (“Insulin Sensitive % DMSO” for short) in series [1] (10 μM) was “= (50%> ≤110%: =)”; in series [1] (100 μM), “− (<50%: −)”. Besides, the activity at 1 µM in the series with Mouse 3T3-L1 cells fell in the range of 70 to 90%; in the series on naïve CD4+ T cells (setting [4]), 110 to 130%; in the series on Mouse myocyte it was 70 to 90%. Moreover, the activity at 10 µM with Mouse 3T3-L1 cells (10 μM) fell in the range of 90 to 100%; with naïve CD4+ T cells (Homo sapiens, CD4+ T, 144 h, 10 uM, read-out: Treg induction % DMSO) it was 110 to 130%; in the series with Mouse myocyte (10 μM), 50 to 70%. Besides, in series [2], the “IL6 % DMSO control” value was “+ ((+) 50%≥ <90% DMSO)”. Besides, the “ILβ % DMSO control” value in series [2] was “= ((=) 90%≥ <110% DMSO)”. Further, in series [2], the “TNFα % of DMSO control” value is “+ ((+) 50%≥ <90% DMSO)”. Also, the “Cell viability % DMSO” value with naïve CD4+ T cells (1 uM) and in the series with naïve CD4+ T cells (10 uM) was “− (<90%: −)” each time. Besides, the “Insulin Resistant % DMSO (glucose uptake)” value (shortened to “Insulin Resistant % DMSO”) is reported as “= (50%> ≤110%: =)” in series [3] (10 μM) and “− (<50%: −)” in series [3] (100 μM). The “% Change in TEER from DMSO” value in the series with Caco-2 colonocytes (10 μM + cytokines) is reported as “− (≤125%: −)”; with Caco-2 colonocytes (100 μM + cytokines), “+++ (200%>: +++)”.
As to `O=c1c(O)c(-c2ccc(O)c(O)c2)oc2cc(O)cc(O)c12` [Quercetin, quercetin], the “Insulin Sensitive % DMSO” value in series [1] (100 nM) and in series [1] (1 μM) was “= (50%> ≤110%: =)” throughout. Moreover, the activity at 0.1 µM with Mouse 3T3-L1 cells (100 nM) was 50 to 70%; with naïve CD4+ T cells (Homo sapiens, CD4+ T, 144 h, 100 nM, read-out: Treg induction % DMSO), 90 to 110%; in the series on Mouse myocyte (100 nM) it was 70 to 90%. Moreover, the values for the activity at 1 µM in the series with Mouse 3T3-L1 cells, in the series with naïve CD4+ T cells (setting [4]) and with Mouse myocyte were 50 to 70%, 90 to 110% and 70 to 90%, respectively. Besides, in series [2], the “IL6 % DMSO control” value is listed as “+ ((+) 50%≥ <90% DMSO)”. The “ILβ % DMSO control” value in series [2] is listed as “+ ((+) 50%≥ <90% DMSO)”. In series [2], the “TNFα % of DMSO control” value is recorded as “+ ((+) 50%≥ <90% DMSO)”. The “Cell viability % DMSO” value with naïve CD4+ T cells (100 nM) and with naïve CD4+ T cells (1 uM) was “= (90%≥ ≤110%: =)” in each case. In addition, the “Insulin Resistant % DMSO” value in series [3] (100 nM) and in series [3] (1 μM) was “= (50%> ≤110%: =)” in each case. Besides, the “% Change in TEER from DMSO” value with Caco-2 colonocytes (1 μM + cytokines) is recorded as “+ (125%> ≤150%: +)”; in the series on Caco-2 colonocytes (100 μM + cytokines) it was “− (≤125%: −)”.
For `CC(=O)O` [Acetate, acetic acid], the “Insulin Sensitive % DMSO” value in series [1] (1 mM) and in series [1] (3 mM) was “= (50%> ≤110%: =)” each time. Moreover, the activity at 1000 µM in the series with Mouse 3T3-L1 cells (1 mM) lay in the range of 50 to 70%; in the series with naïve CD4+ T cells (Homo sapiens, CD4+ T, 144 h, 1 mM, read-out: Treg induction % DMSO), 110 to 130%; in the series on Mouse myocyte (1 mM), 90 to 100%. Further, the activity at 3000 µM was 50 to 70% in the series with Mouse 3T3-L1 cells (3 mM); over 130% with naïve CD4+ T cells (Homo sapiens, CD4+ T, 144 h, 3 mM, read-out: Treg induction % DMSO); 90 to 100% with Mouse myocyte (3 mM). The “IL6 % DMSO control” value in series [2] is on record as “= ((=) 90%≥ <110% DMSO)”. Further, the “ILβ % DMSO control” value in series [2] was “= ((=) 90%≥ <110% DMSO)”. In series [2], the “TNFα % of DMSO control” value is “= ((=) 90%≥ <110% DMSO)”. The “Cell viability % DMSO” value in the series on naïve CD4+ T cells (1 mM) and in the series on naïve CD4+ T cells (3 mM) was “= (90%≥ ≤110%: =)” each time. The “Insulin Resistant % DMSO” value in series [3] (1 mM) and in series [3] (3 mM) was “= (50%> ≤110%: =)” each time. In addition, the “% Change in TEER from DMSO” value with Caco-2 colonocytes (1 mM + cytokines) and with Caco-2 colonocytes (3 mM + cytokines) was “− (≤125%: −)” each time.
Turning to `COC(=O)c1csc(C(=O)c2c[nH]c3ccccc23)n1` [ITE, 2-(1′H-indole-3′-carbonyl)-thiazole-4-carboxylic acid methyl ester], the “Average CYP1A1 mRNA levels” value with AhR (Conc. 1.0 μM) is “+++ (+++ = >10-fold Vehicle)”.
On to `c1ccc2[nH]ccc2c1` [indole], for which the “Average CYP1A1 mRNA levels” value with AhR (Conc. 1000.0 μM) is recorded as “+ (+ = >2-fold Vehicle)”.
For `Cn1cc(C[C@H](N)C(=O)O)c2ccccc21` [1-methylindole-3-alanine], the “Average CYP1A1 mRNA levels” value with AhR (Conc. 10.0 μM) is given as “+ (+ = >2-fold Vehicle)”; in the series with AhR (Conc. 100.0 μM) it was “+++ (+++ = >10-fold Vehicle)”.
The corresponding values for `O=C(O)c1ccccc1` [Benzoic acid] are “+ (+ = >2-fold Vehicle)” and “+ (+ = >2-fold Vehicle)”.
On to `CC(O)CCO` (stereo not shown) [butanediol, 1,3-butanediol], for which, in series [2], the “IL6 % DMSO control” value is reported as “= ((=) 90%≥ <110% DMSO)”, the “ILβ % DMSO control” value is given as “= ((=) 90%≥ <110% DMSO)” and the “TNFα % of DMSO control” value is “= ((=) 90%≥ <110% DMSO)”. Moreover, the “Average CYP1A1 mRNA levels” value in the series with AhR (Conc. 500.0 μM) is recorded as “− (− = +2-fold Vehicle)”. In addition, the “% Change in TEER from DMSO” value in the series on Caco-2 colonocytes (100 μM + cytokines) was “− (≤125%: −)”. Further, the “% Change in TEER from DMSO” value in the series on Caco-2 colonocytes (0.5 mM + cytokines) is “− (≤125%: −)”.
Turning to `OCc1c[nH]c2ccccc12` [indole-3-carbinol], the “Average CYP1A1 mRNA levels” value in the series with AhR (Conc. 1000.0 μM) is “+ (+ = >2-fold Vehicle)”.
